Laboratory results: patent US10266548B2, “Substituted benzylindazoles for use as Bub1 kinase inhibitors in the treatment of hyperproliferative diseases” (Bayer Intellectual Property GmbH, priority 2011, dated 2019)
Where a name gives a salt, the structure may show the parent alone. Read-outs that look alike come from different tables or passages of the source.

Assays:
[1] = test system: HeLa cells; experiment: Proliferation assay (HeLa cell line); assay type: cell-based; details: read-out: Biological Assay 2: Proliferation assay (HeLa cell line) median IC50
Description: Cultivated tumor cells (cells were ordered from ATCC, except HeLa-MaTu and HeLa-MaTu-ADR, which were ordered from EPO-GmbH, Berlin) were plated at a density of 1000 to 5000 cells/well, depending on the growth rate of the respective cell line, in a 96-well multititer plate in 200 μL of their respective growth medium supplemented 10% fetal calf serum. After 24 hours, the cells of one plate (zero-point plate) were stained with crystal violet (see below), while the medium of the other plates was replaced by fresh culture medium (200 μl), to which the test substances were added in various concentrations (0 μM, as well as in the range of 0.001-10 μM; the final concentration of the solvent dimethyl sulfoxide was 0.5%). The cells were incubated for 4 days in the presence of test substances. Cell proliferation was determined by staining the cells with crystal violet: the cells were fixed by adding 20 μl/measuring point of an 11% glutaric aldehyde solution for 15 minutes at room temperature. After three washing cycles of the fixed cells with water, the plates were dried at room temperature. The cells were stained by adding 100 μl/measuring point of a 0.1% crystal violet solution (pH 3.0). After three washing cycles of the stained cells with water, the plates were dried at room temperature. The dye was dissolved by adding 100 μl/measuring point of a 10% acetic acid solution. […] The change of cell number, in percent, was calculated by normalization of the measured values to the aborbtion values of the zero-point plate (=0%) and the absorbtion of the untreated (0 μm) cells (=100%). The IC50 values were determined by means of a 4 parameter fit using the company's own software.

[2] = molecular target: catalytic domain of human Bub1 (amino acids 704-1085) (Homo sapiens (Human), UniProt O43683); experiment: Bub1 kinase assay (TR-FRET); assay type: biochemical; details: 10 μM ATP, 1 μM peptide substrate; read-out: Biological Assay 1: Bub1 kinase assay median IC50
Sequence of catalytic domain of human Bub1 (amino acids 704-1085) (O43683 704-1085): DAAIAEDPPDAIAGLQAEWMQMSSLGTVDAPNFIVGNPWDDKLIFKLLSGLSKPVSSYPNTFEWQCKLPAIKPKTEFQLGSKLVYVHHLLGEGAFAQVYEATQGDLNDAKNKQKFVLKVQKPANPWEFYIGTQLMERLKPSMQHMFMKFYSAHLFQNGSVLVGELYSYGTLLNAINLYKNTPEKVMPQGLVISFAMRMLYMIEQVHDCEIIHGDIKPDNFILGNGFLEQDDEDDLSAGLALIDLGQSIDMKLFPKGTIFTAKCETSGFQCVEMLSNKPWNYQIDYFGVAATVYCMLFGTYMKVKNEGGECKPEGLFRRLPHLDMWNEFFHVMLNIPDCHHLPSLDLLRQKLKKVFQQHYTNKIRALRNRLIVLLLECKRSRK
Procedure, shortened: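 Phosphoserine product detected by TR-FRET (Eu-labeled anti-mouse IgG/anti-phosphoserine antibody to streptavidin-XL665) after 1 h at 22 °C. IC50 from 4-parameter logistic fit.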

[3] = Homo sapiens, 96 h, 4 days, crystal violet

IC50 [1, 3] [nM] | IC50 [2] [nM] | IC50 ([1]; 4 days, crystal violet) [nM] | Compound | IC50 ([1]; Homo sapiens, 96 h) [nM]
10000 | 57 | – | COc1cnc(-c2nn(Cc3ccc(-n4cccn4)cc3)c3ccccc23)nc1Nc1ccncc1 [Example 2-8-3, 5-methoxy-2-{1-[4-(1H-pyrazol-1-yl)benzyl]-1H-indazol-3-yl}-N-(pyridin-4-yl)pyrimidin-4-amine] | –
3400 | 2.6 | – | COc1cnc(-c2nn(Cc3c(Cl)ccc(OC)c3F)c3ccccc23)nc1Nc1ccncc1 [Example 2-2-1, 2-[1-(6-chloro-2-fluoro-3-methoxybenzyl)-1H-indazol-3-yl]-5-methoxy-N-(pyridin-4-yl)pyrimidin-4-amine] | –
≥ 10000 | 1200 | – | COc1cnc(-c2nn(Cc3ccc(S(=O)(=O)N4CCOCC4)cc3)c3ccccc23)nc1Nc1ccncc1 [Example 2-43-1, 5-methoxy-2-{1-[4-(morpholin-4-ylsulfonyl)benzyl]-1H-indazol-3-yl}-N-(pyridin-4-yl)pyrimidin-4-amine] | –
≥ 10000 | 13 | – | COc1cnc(-c2nn(Cc3ccccc3F)c3ccccc23)nc1Nc1ccncc1C(N)=O [Example 25-1, 4-({2-[1-(2-fluorobenzyl)-1H-indazol-3-yl]-5-methoxypyrimidin-4-yl}amino)pyridine-3-carboxamide] | –
≥ 10000 | 20 | – | COc1cnc(-c2nn(Cc3ccc4c(c3)NC(=O)CC4)c3ccccc23)nc1Nc1ccncc1 [Example 2-27-1, 7-({3-[5-methoxy-4-(pyridin-4-ylamino)pyrimidin-2-yl]-1H-indazol-1-yl}methyl)-3,4-dihydroquinolin-2(1H)-one] | –
4400 | 8.8 | – | CCOc1cc(F)c(Cn2nc(-c3ncc(OC)c(Nc4ccncc4C(N)=O)n3)c3ccccc32)c(F)c1 [Example 25-3, 4-({2-[1-(4-ethoxy-2,6-difluorobenzyl)-1H-indazol-3-yl]-5-methoxypyrimidin-4-yl}amino)pyridine-3-carboxamide] | –
≥ 10000 | 52 | – | CCOC(=O)Cc1cccc(Cn2nc(-c3ncc(OC)c(Nc4ccncc4)n3)c3ccccc32)c1 [Example 2-35-1, ethyl [3-({3-[5-methoxy-4-(pyridin-4-ylamino)pyrimidin-2-yl]-1H-indazol-1-yl}methyl)phenyl]acetate] | –
1400 | 16 | – | COc1cnc(-c2nn(Cc3c(F)cc(Br)cc3OCC(F)(F)F)c3ccccc23)nc1Nc1ccncc1 [Example 18-1, 2-{1-[4-bromo-2-fluoro-6-(2,2,2-trifluoroethoxy)benzyl]-1H-indazol-3-yl}-5-methoxy-N-(pyridin-4-yl)pyrimidin-4-amine] | –
5900 | 8800 | – | COc1cnc(-c2nn(Cc3c(Cl)ccc(C(=O)N4CCOCC4)c3Cl)c3ccccc23)nc1Nc1ccncc1 [Example 20-5, [2,4-dichloro-3-({3-[5-methoxy-4-(pyridin-4-yla-mino)pyrimidin-2-yl]-1H-indazol-1-yl}methyl)phenyl] (morpholin-4-yl)methanone] | –
3300 | 40 | – | COc1cnc(-c2nn(Cc3c(Cl)ccc(C(N)=O)c3Cl)c3ccccc23)nc1Nc1ccncc1 [Example 20-2, 2,4-dichloro-3-({3-[5-methoxy-4-(pyridin-4-yla-mino)pyrimidin-2-yl]-1H-indazol-1-yl}methyl) benzamide] | –
3600 | 6.7 | – | CCOc1cc(F)c(Cn2nc(-c3ncc(OC)c(Nc4ccncc4)n3)c3c(C)cccc32)c(F)c1 [Example 42-1, 2-[1-(4-ethoxy-2,6-difluorobenzyl)-4-methyl-1H-indazol-3-yl]-5-methoxy-N-(pyridin-4-yl)pyrimidin-4-amine] | –
– | 6.3 | ≥ 10000 | CCOc1cc(F)c(Cn2nc(-c3ncc(OCC(=O)O)c(Nc4ccncc4)n3)c3ccccc32)c(F)c1 [Example 19-2] | –
≥ 10000 | 35 | – | Fc1ccccc1Cn1nc(-c2ncc(OCc3nnn[nH]3)c(Nc3ccncc3)n2)c2ccccc21 [Example 4-7, 2-[1-(2-fluorobenzyl)-1H-indazol-3-yl]-N-(pyridin-4-yl)-5-(1H-tetrazol-5-ylmethoxy) pyrimidin-4-amine] | –
8000 | 4.7 | – | CNC(=O)c1cnccc1Nc1nc(-c2nn(Cc3ccccc3F)c3ccccc23)ncc1OCCO [Example 13-4, 4-({2-[1-(2-fluorobenzyl)-1H-indazol-3-yl]-5-(2-hydroxyethoxy)-pyrimidin-4-yl}amino)-N-methylpyridine-3-carboxamide] | –
– | 12 | 9900 | COc1cnc(-c2nn(Cc3c(Cl)ccc(CO)c3Cl)c3ccccc23)nc1Nc1ccncc1 [Example 15-5, [2,4-dichloro-3-({3-[5-methoxy-4-(pyridin-4-ylamino)pyrimidin-2-yl]-1H-indazol-1-yl}methyl)phenyl] methanol hydrochloride (1:1)] | –

Compound | IC50 [1, 3] [nM] | IC50 [2] [nM] | IC50 ([1]; 4 days, crystal violet) [nM] | IC50 ([1]; Homo sapiens, 96 h) [nM]
OC[C@H](O)COc1cnc(-c2nn(Cc3ccccc3F)c3ccccc23)nc1Nc1ccncc1 [Example 12-3] | – | 4.8 | ≥ 10000 | –
COc1ccc(Cn2nc(-c3ncc(OCC(F)(F)F)c(Nc4ccncc4)n3)c3ccccc32)cc1 [Example 11-1, 2-[1-(4-methoxybenzyl)-1H-indazol-3-yl]-N-(pyridin-4-yl)-5-(2,2,2-trifluoroethoxy)pyrimidin-4-amine] | – | 18 | – | 8100
OC[C@H](O)COc1cnc(-c2nn(Cc3ccccc3F)c3ccccc23)nc1Nc1ccncc1 [Example 15-2, (2S)-3-({2-[1-(2-fluorobenzyl)-1H-indazol-3-yl]-4-(pyridin-4-ylamino)pyrimidin-5-yl}oxy)propane-1,2-diol hydrochloride (1:1)] | – | 5.5 | – | ≥ 10000
CCOc1cc(F)c(Cn2nc(-c3ncc(OCC4(CO)COC4)c(Nc4ccncc4)n3)c3ccccc32)c(F)c1 [Example 4-1, {3-[({2-[1-(4-ethoxy-2,6-difluorobenzyl)-1H-indazol-3-yl]-4-(pyridin-4-ylamino)pyrimidin-5-yl}oxy)methyl]oxetan-3-yl}methanol] | – | 2.4 | – | 3500
CCOc1cc(F)c(Cn2nc(-c3ncc(OCCOC)c(Nc4ccncc4)n3)c3ccccc32)c(F)c1 [Example 4-10, 2-[1-(4-ethoxy-2,6-difluorobenzyl)-1H-indazol-3-yl]-5-(2-methoxyethoxy)-N-(pyridin-4-yl)pyrimidin-4-amine] | – | 9 | – | 4400
CCOc1cc(F)c(Cn2nc(-c3nccc(N(C(=O)C4CCOCC4)c4ccncc4)n3)c3ccccc32)c(F)c1 [Example 16-3, N-{2-[1-(4-ethoxy-2,6-difluorobenzyl)-1H-indazol-3-yl]pyrimidin-4-yl}-N-(pyridin-4-yl)tetrahydro-2H-pyran-4-carboxamide] | – | 210 | – | 4100
CCOc1cc(F)c(Cn2nc(-c3ncc(OC)c(Nc4cc[nH]c(=O)c4)n3)c3ccccc32)c(F)c1 [Example 24-8, 4-({2-[1-(4-ethoxy-2,6-difluorobenzyl)-1H-indazol-3-yl]-5-methoxypyrimidin-4-yl}amino)pyridin-2(1H)-one] | – | 26 | – | 10000
COc1cnc(-c2nn(Cc3ccccc3C#N)c3ccccc23)nc1Nc1ccncc1 [Example 2-5-3, 2-({3-[5-methoxy-4-(pyridin-4-ylamino)pyrimidin-2-yl]-1H-indazol-1-yl}methyl) benzonitrile] | – | 21 | – | ≥ 10000
COc1ccc(Cn2nc(-c3ncc(OC)c(Nc4cc(F)nc(F)c4)n3)c3ccccc32)cc1 [Example 34-2, N-(2,6-difluoropyridin-4-yl)-5-methoxy-2-[1-(4-methoxybenzyl)-1H-indazol-3-yl]pyrimidin-4-amine] | – | 6200 | – | ≥ 10000
COc1cnc(-c2nn(Cc3c(Cl)cccc3Cl)c3ccccc23)nc1Nc1ccncc1 [Example 15-4, 2-[1-(2,6-dichlorobenzyl)-1H-indazol-3-yl]-5-methoxy-N-(pyridin-4-yl)pyrimidin-4-amine hydrochloride (1:1)] | – | 7.3 | – | ≥ 10000
OCCOc1cnc(-c2nn(Cc3ccccc3F)c3ccccc23)nc1Nc1ccncc1 [Example 13-2, 2-({2-[1-(2-fluorobenzyl)-1H-indazol-3-yl]-4-(pyridin-4-ylamino)pyrimidin-5-yl}oxy)ethanol] | – | 7.2 | – | 9600
CN(C)CCOc1cnc(-c2nn(Cc3ccc(F)cc3)c3ccccc23)nc1Nc1ccncc1 [Example 4-6, 5-[2-(dimethyl-amino)ethoxy]-2-[1-(4-ftuorobenzyl)-1H-indazol-3-yl]-N-(pyridin-4-yl)pyrimidin-4-amine] | – | 29 | – | 3600
COc1ccc(Cn2nc(-c3ncc(OC4CC4)c(Nc4ccncc4)n3)c3ccccc32)cc1 [Example 14-1, 5-(cyclopropyloxy)-2-[1-(4-methoxybenzyl)-1H-indazol-3-yl]-N-(pyridin-4-yl)pyrimidin-4-amine] | – | 3300 | – | ≥ 10000
